Laboratory results as given in ChEMBL document CHEMBL4828766 (J Med Chem, 2021).
pEC50, pKi: −log10 of the molar value. Square brackets hold non-standard residues; d marks the D form. Peptide text beside a SMILES is read from it. dPhe(4-I) = N[C@H](Cc1ccc(I)cc1)C(=O)O; 2Nal = N[C@@H](Cc1ccc2ccccc2c1)C(=O)O; d2Nal = N[C@H](Cc1ccc2ccccc2c1)C(=O)O

Key:
Format in all cases: functional, cell-based
Melanocortin receptor 4 [1] = target: T1, Melanocortin receptor 4 (Mus musculus, UniProt P56450); assay: Antagonist activity at mouse melanocortin receptor 4 expressed in HEK293 cells assessed as inhibition of NDP-MSH-induced cAMP accumulation incubated for 2 hrs by cAMP Alpha-screen assay based Schild analysis; conditions: for Kb: read-out: pA2 (converted)
T1 sequence (P56450 whole entry): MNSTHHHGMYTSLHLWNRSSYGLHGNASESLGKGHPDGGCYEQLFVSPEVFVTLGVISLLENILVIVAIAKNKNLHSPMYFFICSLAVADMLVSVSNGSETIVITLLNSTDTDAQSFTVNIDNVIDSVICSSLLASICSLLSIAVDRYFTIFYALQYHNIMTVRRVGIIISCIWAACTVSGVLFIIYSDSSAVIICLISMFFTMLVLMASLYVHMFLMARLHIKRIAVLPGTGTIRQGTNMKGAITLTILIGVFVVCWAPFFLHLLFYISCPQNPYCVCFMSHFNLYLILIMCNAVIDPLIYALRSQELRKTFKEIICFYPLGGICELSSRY

Melanocortin receptor 4 [2] = target: T1, Melanocortin receptor 4; assay: Agonist activity at mouse MC4R expressed in HEK293 cells assessed as induction of cAMP level incubated for 2 hr by alphaScreen assay
Melanocortin receptor 5 = Melanocortin receptor 5 (Mus musculus, UniProt P41149); assay: Agonist activity at mouse MC5R expressed in HEK293 cells assessed as induction of cAMP level at 100 uM incubated for 2 hr by alphaScreen assay
Melanocortin receptor 5, sequence (P41149 whole entry): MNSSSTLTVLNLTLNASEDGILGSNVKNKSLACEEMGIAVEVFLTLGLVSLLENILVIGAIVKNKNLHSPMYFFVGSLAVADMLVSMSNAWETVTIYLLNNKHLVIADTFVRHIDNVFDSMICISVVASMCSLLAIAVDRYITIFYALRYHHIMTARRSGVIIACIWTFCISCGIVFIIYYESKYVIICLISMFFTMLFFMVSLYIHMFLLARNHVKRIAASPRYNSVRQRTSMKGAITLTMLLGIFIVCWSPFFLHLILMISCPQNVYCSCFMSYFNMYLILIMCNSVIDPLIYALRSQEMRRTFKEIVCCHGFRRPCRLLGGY

Melanocortin receptor 3 [3] = target: T2, Melanocortin receptor 3 (Mus musculus, UniProt P33033); assay: Agonist activity at mouse MC3R expressed in HEK293 cells assessed as induction of cAMP level incubated for 2 hr by alphaScreen assay
T2 sequence (P33033 whole entry): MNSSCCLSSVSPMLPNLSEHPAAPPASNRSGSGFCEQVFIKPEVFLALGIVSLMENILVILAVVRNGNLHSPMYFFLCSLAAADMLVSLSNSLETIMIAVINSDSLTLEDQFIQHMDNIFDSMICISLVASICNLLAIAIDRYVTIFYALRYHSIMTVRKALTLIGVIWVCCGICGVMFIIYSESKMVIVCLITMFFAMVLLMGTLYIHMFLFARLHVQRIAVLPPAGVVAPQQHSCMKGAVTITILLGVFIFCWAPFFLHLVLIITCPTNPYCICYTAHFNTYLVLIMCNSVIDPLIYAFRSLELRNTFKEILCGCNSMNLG

Melanocortin receptor 3 [4] = target: T2, Melanocortin receptor 3; assay: Antagonist activity at mouse melanocortin receptor 3 expressed in HEK293 cells assessed as inhibition of NDP-MSH-induced cAMP accumulation incubated for 2 hrs by cAMP Alpha-screen assay based Schild analysis; conditions: for Kb: read-out: pA2 (converted)
[5] = target: Melanocyte-stimulating hormone receptor (Mus musculus) (UniProt Q01727); assay: Agonist activity at mouse MC1R expressed in HEK293 cells assessed as induction of cAMP level at 100 uM incubated for 2 hr by alphaScreen assay relative to NDP-MSH
Melanocyte-stimulating hormone receptor (Mus musculus), sequence (Q01727 whole entry, looked up): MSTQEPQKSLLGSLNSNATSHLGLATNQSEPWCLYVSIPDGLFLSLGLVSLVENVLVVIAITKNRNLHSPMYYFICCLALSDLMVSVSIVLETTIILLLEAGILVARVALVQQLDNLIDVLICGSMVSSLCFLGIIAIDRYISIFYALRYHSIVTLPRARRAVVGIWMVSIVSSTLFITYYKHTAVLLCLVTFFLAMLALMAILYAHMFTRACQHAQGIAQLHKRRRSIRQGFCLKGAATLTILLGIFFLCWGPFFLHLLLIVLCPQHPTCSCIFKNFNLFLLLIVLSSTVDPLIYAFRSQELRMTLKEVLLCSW

[6] = target: Melanocyte-stimulating hormone receptor (Mus musculus, UniProt Q01727); assay: Agonist activity at mouse MC1R expressed in HEK293 cells assessed as induction of cAMP level at 100 uM incubated for 2 hr by alphaScreen assay
Melanocyte-stimulating hormone receptor, sequence (Q01727 whole entry): as the sequence (Q01727 whole entry, looked up) above

[7] = target: Melanocortin receptor 4 (Mus musculus) (UniProt P56450); assay: Agonist activity at mouse MC4R expressed in HEK293 cells assessed as induction of cAMP level at 100 uM incubated for 2 hr by alphaScreen assay relative to control
Melanocortin receptor 4 (Mus musculus), sequence (P56450 whole entry): as the sequence (P56450 whole entry) above

SMILES | Kb (Melanocortin receptor 4 [1]) [µM] | pEC50 (Melanocortin receptor 4 [2]) | pEC50 (Melanocortin receptor 5) | pEC50 (Melanocortin receptor 3 [3]) | Kb (Melanocortin receptor 3 [4]) [µM] | Activity ([5]; filed as agonist) [%] | pEC50 [6] | Activity [5] [%] | Activity [7] [%] | pKi (Melanocortin receptor 4 [1]) | pKi (Melanocortin receptor 3 [4])
CC(=O)N[C@H](Cc1ccc(I)cc1)C(=O)N[C@H](Cc1ccc2ccccc2c1)C(=O)N[C@H](Cc1ccc2ccccc2c1)C(=O)N[C@H](CCCCN)C(N)=O (Ac-[dPhe(4-I)][d2Nal][d2Nal][dK]-NH2) | 0.501 | < 4.00 | < 4.00 | < 4.00 | > 3.16 | – | – | – | – | – | –
CC(=O)N[C@H](Cc1ccc(I)cc1)C(=O)N[C@H](Cc1ccc2ccccc2c1)C(=O)N[C@H](Cc1ccc(I)cc1)C(=O)N[C@@H](CCCNC(=N)N)C(N)=O (Ac-[dPhe(4-I)][d2Nal][dPhe(4-I)]R-NH2) | > 3.16 | < 4.00 | – | < 4.00 | > 3.16 | 40 | – | – | – | – | –
CC(=O)N[C@H](Cc1ccc2ccccc2c1)C(=O)N[C@@H](CCCNC(=N)N)C(=O)N[C@H](Cc1ccc(I)cc1)C(=O)N[C@@H](CCCNC(=N)N)C(N)=O (Ac-[d2Nal]R[dPhe(4-I)]R-NH2) | 0.00251 | < 4.00 | < 4.00 | < 4.00 | 0.0794 | – | 7.40 | – | – | – | –
CC(=O)N[C@H](Cc1ccc2ccccc2c1)C(=O)N[C@H](Cc1ccc2ccccc2c1)C(=O)N[C@@H](Cc1ccc2ccccc2c1)C(=O)N[C@H](CCCCN)C(N)=O (Ac-[d2Nal][d2Nal][2Nal][dK]-NH2) | > 3.16 | < 4.00 | < 4.00 | < 4.00 | > 3.16 | 45 | – | – | – | – | –
CC(=O)N[C@H](Cc1ccc2ccccc2c1)C(=O)N[C@H](Cc1ccc2ccccc2c1)C(=O)N[C@@H](Cc1c[nH]c2ccccc12)C(=O)N[C@H](CCCCN)C(N)=O (Ac-[d2Nal][d2Nal]W[dK]-NH2) | 0.2 | – | < 4.00 | < 4.00 | 1.58 | – | – | 25 | 30 | – | –
CC(=O)N[C@H](Cc1ccc(I)cc1)C(=O)N[C@H](Cc1ccc2ccccc2c1)C(=O)N[C@H](Cc1ccc2ccccc2c1)C(=O)N[C@@H](CCCNC(=N)N)C(N)=O (Ac-[dPhe(4-I)][d2Nal][d2Nal]R-NH2) | > 3.16 | < 4.00 | 6.64 | < 4.00 | > 3.16 | – | < 4.00 | – | – | – | –
CC(=O)N[C@H](Cc1ccc2ccccc2c1)C(=O)N[C@H](Cc1ccc2ccccc2c1)C(=O)N[C@H](Cc1ccc2ccccc2c1)C(=O)N[C@H](CCCCN)C(N)=O (Ac-[d2Nal][d2Nal][d2Nal][dK]-NH2) | > 3.16 | < 4.00 | < 4.00 | < 4.00 | > 3.16 | 55 | – | – | – | – | –
CC(=O)N[C@H](Cc1ccc2ccccc2c1)C(=O)N[C@H](Cc1ccc2ccccc2c1)C(=O)N[C@H](Cc1ccc(I)cc1)C(=O)N[C@@H](CCCNC(=N)N)C(N)=O (Ac-[d2Nal][d2Nal][dPhe(4-I)]R-NH2) | > 3.16 | < 4.00 | – | < 4.00 | > 3.16 | – | – | 25 | – | – | –
CC(=O)N[C@H](Cc1ccc(I)cc1)C(=O)N[C@@H](CCCNC(=N)N)C(=O)N[C@H](Cc1ccc(I)cc1)C(=O)N[C@@H](CCCNC(=N)N)C(N)=O (Ac-[dPhe(4-I)]R[dPhe(4-I)]R-NH2) | 0.00316 | < 4.00 | < 4.00 | < 4.00 | 0.0398 | – | 8.15 | – | – | 8.49 | 7.40
CC(=O)N[C@H](Cc1ccc2ccccc2c1)C(=O)N[C@H](Cc1ccc2ccccc2c1)C(=O)N[C@H](Cc1ccc(I)cc1)C(=O)N[C@H](CCCCN)C(N)=O (Ac-[d2Nal][d2Nal][dPhe(4-I)][dK]-NH2) | > 3.16 | < 4.00 | < 4.00 | < 4.00 | > 3.16 | – | – | 20 | – | – | –
CC(=O)N[C@H](Cc1ccc(I)cc1)C(=O)N[C@H](Cc1ccc2ccccc2c1)C(=O)N[C@@H](Cc1c[nH]c2ccccc12)C(=O)N[C@@H](CCCNC(=N)N)C(N)=O | 2.51 | < 4.00 | < 4.00 | < 4.00 | > 3.16 | – | < 4.00 | – | – | 5.60 | –
CC(=O)N[C@H](Cc1ccc(I)cc1)C(=O)N[C@@H](CCCNC(=N)N)C(=O)N[C@@H](Cc1c[nH]c2ccccc12)C(=O)N[C@H](CCCCN)C(N)=O (Ac-[dPhe(4-I)]RW[dK]-NH2) | 0.0251 | < 4.00 | < 4.00 | < 4.00 | 0.631 | – | < 4.00 | – | – | 7.60 | 6.20
CC(=O)N[C@H](Cc1ccc(I)cc1)C(=O)N[C@@H](CCCNC(=N)N)C(=O)N[C@H](Cc1ccc(I)cc1)C(=O)N[C@H](CCCCN)C(N)=O (Ac-[dPhe(4-I)]R[dPhe(4-I)][dK]-NH2) | 0.00316 | < 4.00 | < 4.00 | < 4.00 | 0.0316 | – | 7.46 | – | – | 8.49 | 7.49
CC(=O)N[C@H](Cc1ccc2ccccc2c1)C(=O)N[C@@H](CCCNC(=N)N)C(=O)N[C@@H](Cc1c[nH]c2ccccc12)C(=O)N[C@H](CCCCN)C(N)=O (Ac-[d2Nal]RW[dK]-NH2) | 0.02 | < 4.00 | < 4.00 | < 4.00 | 3.16 | – | < 4.00 | – | – | – | –
CC(=O)N[C@H](Cc1ccc(I)cc1)C(=O)N[C@H](Cc1ccc2ccccc2c1)C(=O)N[C@@H](Cc1c[nH]c2ccccc12)C(=O)N[C@H](CCCCN)C(N)=O (Ac-[dPhe(4-I)][d2Nal]W[dK]-NH2) | 0.251 | < 4.00 | < 4.00 | < 4.00 | 2 | 65 | – | – | – | 6.60 | 5.70
CC(=O)N[C@H](Cc1ccc(I)cc1)C(=O)N[C@H](Cc1ccc2ccccc2c1)C(=O)N[C@H](Cc1ccc(I)cc1)C(=O)N[C@H](CCCCN)C(N)=O | > 3.16 | < 4.00 | < 4.00 | < 4.00 | > 3.16 | – | < 4.00 | – | – | – | –
CC(=O)N[C@H](Cc1ccc(I)cc1)C(=O)N[C@@H](CCCNC(=N)N)C(=O)N[C@@H](Cc1ccc2ccccc2c1)C(=O)N[C@H](Cc1ccc2ccccc2c1)C(N)=O (Ac-[dPhe(4-I)]R[2Nal][d2Nal]-NH2) | 0.2 | < 4.00 | < 4.00 | < 4.00 | > 3.16 | 55 | – | – | – | 6.70 | –
CC(=O)N[C@H](Cc1ccc(I)cc1)C(=O)N[C@H](Cc1ccc2ccccc2c1)C(=O)N[C@@H](Cc1ccc2ccccc2c1)C(=O)N[C@@H](CCCNC(=N)N)C(N)=O (Ac-[dPhe(4-I)][d2Nal][2Nal]R-NH2) | 1.58 | < 4.00 | 6.10 | < 4.00 | > 3.16 | – | – | – | – | 5.80 | –
CC(=O)N[C@H](Cc1ccc2ccccc2c1)C(=O)N[C@@H](CCCNC(=N)N)C(=O)N[C@H](Cc1ccc(I)cc1)C(=O)N[C@H](CCCCN)C(N)=O | 0.00316 | < 4.00 | < 4.00 | < 4.00 | 0.126 | – | 6.66 | – | – | – | –
CC(=O)N[C@H](Cc1ccc2ccccc2c1)C(=O)N[C@@H](CCCNC(=N)N)C(=O)N[C@@H](Cc1c[nH]c2ccccc12)C(=O)N[C@@H](CCCNC(=N)N)C(N)=O (Ac-[d2Nal]RWR-NH2) | 0.00501 | – | < 4.00 | < 4.00 | 0.158 | – | – | – | 20 | – | –
